Source: US4401660A, “Ester derivatives of 5-O-mycaminosyl tylonolide and method of using same” (Eli Lilly and Company, priority 1981, dated 1983)
Read-outs that look alike come from different tables or passages of the source.

How the values were obtained:
[1] = system: Streptococcus pyogenes C203; experiment: ED50 in mice with experimental infections (Table IV); format: in vivo; conditions: Streptococcus pyogenes, doses given 1 and 4 hours postinfection
Method in brief: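 Read-out is ED50, the mg/kg dose protecting half of infected mice; values refer to each of two doses, given 1 and 4 hours after infection.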

[2] = system: Streptococcus pneumoniae Park I; experiment: MIC, standard agar-dilution assay (Table II); format: cell-based; design: unit not given here
Description: (§1) The MIC's in Table II were determined by standard agar-dilution assays. The MIC's in Table III were obtained using a conventional broth-dilution microtiter test.

[3] = system: Streptococcus Group D 9960; experiment: MIC, standard agar-dilution assay (Table II); format: cell-based; design: unit not given here
Description: as §1

[4] = system: Staphylococcus aureus V41; experiment: MIC, standard agar-dilution assay (Table II); format: cell-based; design: unit not given here; conditions: Staphylococcus aureus V41, penicillin-resistant strain
Description: as §1

[5] = system: Staphylococcus epidermidis EPI1; experiment: MIC, standard agar-dilution assay (Table II); format: cell-based; design: unit not given here
Description: as §1

[6] = system: Streptococcus Group D X66; experiment: MIC, standard agar-dilution assay (Table II); format: cell-based; design: unit not given here
Description: as §1

[7] = system: Haemophilus influenzae Holt; experiment: MIC, standard agar-dilution assay (Table II); format: cell-based; design: unit not given here; conditions: ampicillin-sensitive strain
Description: as §1

[8] = system: Staphylococcus aureus S13E; experiment: MIC, standard agar-dilution assay (Table II); format: cell-based; design: unit not given here
Description: as §1

[9] = system: Staphylococcus epidermidis EPI2; experiment: MIC, standard agar-dilution assay (Table II); format: cell-based; design: unit not given here
Description: as §1

[10] = system: Staphylococcus aureus X1.1; experiment: MIC, standard agar-dilution assay (Table II); format: cell-based; design: unit not given here
Description: as §1

[11] = system: Staphylococcus aureus X400; experiment: MIC, standard agar-dilution assay (Table II); format: cell-based; design: unit not given here; conditions: Staphylococcus aureus X400, methicillin-resistant strain
Description: as §1

[12] = system: Streptococcus pyogenes C203; experiment: MIC, standard agar-dilution assay (Table II); format: cell-based; design: unit not given here
Description: as §1

[13] = system: Haemophilus influenzae R252; experiment: MIC, standard agar-dilution assay (Table II); format: cell-based; design: unit not given here; conditions: Haemophilus influenzae R252, ampicillin-resistant strain
Description: as §1

Pasteurella multocida = experiment: Treatment of Pasteurella infections in chicks (Table V); format: in vivo, one-day-old chicks; conditions: Pasteurella multocida, sc, 4 h; 30 mg/kg by subcutaneous injection one and four hours post challenge; read-out: Deaths in Treated Chicks/Number Treated (converted)
Method in brief: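 Dosing was 30 mg/kg by subcutaneous injection, one and four hours after challenge. Day-old chicks received 0.1 ml of a 10^-3 dilution of a 20-hour tryptose broth culture of avian P. multocida subcutaneously. Nonmedicated infected chicks served as controls, ten per group.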

Streptococcus sp. 80 = experiment: MIC, broth-dilution microtiter test (Table III); format: cell-based; design: unit not given here
Description: as §1

Mycoplasma gallisepticum = experiment: MIC, broth-dilution microtiter test (Table III); format: cell-based; design: unit not given here
Description: as §1

[14] = system: Pasteurella multocida 68C; experiment: MIC, broth-dilution microtiter test (Table III); format: cell-based; design: unit not given here
Description: as §1

Staphylococcus aureus = experiment: MIC, broth-dilution microtiter test (Table III); format: cell-based; design: unit not given here
Description: as §1

[15] = system: Pasteurella haemolytica 22C; experiment: MIC, broth-dilution microtiter test (Table III); format: cell-based; design: unit not given here
Description: as §1

[16] = system: Pasteurella haemolytica 23C; experiment: MIC, broth-dilution microtiter test (Table III); format: cell-based; design: unit not given here
Description: as §1

[17] = system: Pasteurella multocida 22A; experiment: MIC, broth-dilution microtiter test (Table III); format: cell-based; design: unit not given here
Description: as §1

[18] = system: Pasteurella multocida 17E; experiment: MIC, broth-dilution microtiter test (Table III); format: cell-based; design: unit not given here; conditions: bovine isolate
Description: as §1

[19] = system: Pasteurella haemolytica 41D; experiment: MIC, broth-dilution microtiter test (Table III); format: cell-based; design: unit not given here
Description: as §1

Mycoplasma hyorhinis = experiment: MIC, broth-dilution microtiter test (Table III); format: cell-based; design: unit not given here
Description: as §1

[20] = system: Pasteurella multocida 60A; experiment: MIC, broth-dilution microtiter test (Table III); format: cell-based; design: unit not given here; conditions: avian isolate
Description: as §1

[21] = system: Pasteurella multocida 40G; experiment: MIC, broth-dilution microtiter test (Table III); format: cell-based; design: unit not given here
Description: as §1

Mycoplasma synoviae = experiment: MIC, broth-dilution microtiter test (Table III); format: cell-based; design: unit not given here
Description: as §1

[22] = C203, oral, read-out: ED50, Oral

CCC1OC(=O)CC(O)C(C)C(OC2OC(C)C(O)C(N(C)C)C2O)C(CC=O)CC(C)C(=O)C=CC(C)=CC1COC(=O)COc1ccccc1 (stereo not shown) [Compound 36, 23-O-Phenoxyacetyl-OMT]
ED50 [1, 22]: > 150 mg/kg | ED50 ([1]; C203, sc, subcutaneous, read-out: ED50, Subcutaneous): 6 mg/kg | minimal inhibitory concentration (MIC) [2]: 0.03 | minimal inhibitory concentration (MIC) [3]: 0.125 | minimal inhibitory concentration (MIC) [4]: 0.25 | minimal inhibitory concentration (MIC) [5]: 0.125 | minimal inhibitory concentration (MIC) [6]: 0.125 | minimal inhibitory concentration (MIC) [7]: 0.5 | minimal inhibitory concentration (MIC) [8]: 0.125 | minimal inhibitory concentration (MIC) [9]: 0.25 | minimal inhibitory concentration (MIC) [10]: 0.125 | minimal inhibitory concentration (MIC) [11]: 0.25 | minimal inhibitory concentration (MIC) [12]: 0.06 | minimal inhibitory concentration (MIC) [13]: 0.5 | mortality at 30 mg/kg (Pasteurella multocida): 10% | minimal inhibitory concentration (MIC) (Streptococcus sp. 80): < 0.05 | minimal inhibitory concentration (MIC) (Mycoplasma gallisepticum): < 0.05 | minimal inhibitory concentration (MIC) [14]: 0.78 | minimal inhibitory concentration (MIC) (Staphylococcus aureus): 0.39 | minimal inhibitory concentration (MIC) [15]: 3.12 | minimal inhibitory concentration (MIC) [16]: 3.12 | minimal inhibitory concentration (MIC) [17]: 3.12 | minimal inhibitory concentration (MIC) [18]: 1.56 | minimal inhibitory concentration (MIC) [19]: 3.12 | minimal inhibitory concentration (MIC) (Mycoplasma hyorhinis): 1.56 | minimal inhibitory concentration (MIC) [20]: 1.56 | minimal inhibitory concentration (MIC) [21]: 1.56

CCC1OC(=O)CC(O)C(C)C(OC2OC(C)C(OC(C)=O)C(N(C)C)C2OC(C)=O)C(CC=O)CC(C)C(=O)C=CC(C)=CC1COC(=O)CSc1ccc(Cl)c(Cl)c1 (stereo not shown) [Compound 37, 2',4'-Di-O-acetyl-23-O-[(3,4-dichlorophenylthio)acetyl]-OMT]
ED50 [1, 22]: > 150 mg/kg | minimal inhibitory concentration (MIC) [2]: 0.5 | minimal inhibitory concentration (MIC) [3]: 2 | minimal inhibitory concentration (MIC) [4]: 4 | minimal inhibitory concentration (MIC) [5]: 2 | minimal inhibitory concentration (MIC) [6]: 2 | minimal inhibitory concentration (MIC) [8]: 2 | minimal inhibitory concentration (MIC) [9]: 4 | minimal inhibitory concentration (MIC) [10]: 2 | minimal inhibitory concentration (MIC) [11]: 4 | minimal inhibitory concentration (MIC) [12]: 0.5 | mortality at 30 mg/kg (Pasteurella multocida): 100% | minimal inhibitory concentration (MIC) (Streptococcus sp. 80): < 0.05 | minimal inhibitory concentration (MIC) (Mycoplasma gallisepticum): < 0.05 | minimal inhibitory concentration (MIC) [14]: 0.78 | minimal inhibitory concentration (MIC) (Staphylococcus aureus): 0.39 | minimal inhibitory concentration (MIC) [15]: 6.25 | minimal inhibitory concentration (MIC) [16]: 6.25 | minimal inhibitory concentration (MIC) [17]: 6.25 | minimal inhibitory concentration (MIC) [18]: 1.56 | minimal inhibitory concentration (MIC) [19]: 12.5 | minimal inhibitory concentration (MIC) (Mycoplasma hyorhinis): 6.25 | minimal inhibitory concentration (MIC) (Mycoplasma synoviae): 0.78 | minimal inhibitory concentration (MIC) [20]: 3.12 | minimal inhibitory concentration (MIC) [21]: 3.12
